Measurements from patent US12102089B2, “Method for inactivating mold spores” (DSM IP ASSETS B.V., priority 2017, dated 2024).

Tests used:
[1] = tested on: Aspergillus niger ATCC 9029AA; assay: Heat treatment of Aspergillus niger ATCC 9029AA spores in ice tea with natamycin, visual growth; type: cell-based; parameters: key to growth or no growth: growth (+); no growth (−)
Description: Commercially available ice tea (Lipton, peach flavor, non-carbonated, 1.5 L) was adjusted to high water hardness by adding 1 ml of a solution of 39 g CaCl2 and 27 g MgCl2 added to 934 g water. ⅓ of this ice tea preparation (the pH of which was 3.15) was left as-such, ⅓ of the preparation was enriched with 5 ppm natamycin and ⅓ of the preparation was enriched with 10 ppm natamycin. Samples of 5 ml were made from each preparation in 15 ml sterile plastic tubes. Of each preparation 8 samples were pre-heated to the desired pasteurization temperature using a water bath. Temperatures used were RT, 60, 65, 70, 75, 80, 85 and 90° C. When the desired temperature was reached, 100 μl of a 2500 spores/ml spore suspension of Aspergillus niger ATCC 9029AA was added to each tube. Subsequently, the samples were kept for 30 seconds at the temperature in question in the water bath. Next, the samples were cooled on ice to a temperature of 25° C. Samples were incubated at 25° C. and visually examined for growth (formation of mold flakes or turbidity) for two months. Additionally, samples were enumerated according to ISO protocol 21527-1.2008 on day 0 (before heat treatment) and day 1 (after heat treatment) to count immediate loss of viability. Enumeration was repeated after 1 month when samples remained free from visual mold growth; most counts were reduced to <10 after heat treatment, but were still able to grow. For the results, see Table 1.

[2] = LC-MS/MS analysis of natamycin and mycosamine in heated ice tea sample; type: physicochemical; settings: 10 ppm natamycin at t=0, heated at 70° C.
Description: For the analysis of mycosamine at low concentrations (ppb level) a sample preparation is used with a cation exchange SPE material to isolate mycosamine from the sample matrix and/or remove possible interfering impurities therefrom. The analysis was performed on LC-MS/MS on a ZIC-HILIC column. For the identification and (semi) quantification a reference of mycosamine was prepared. The concentration of mycosamine in this reference was determined with ^1H-NMR.

C[C@@H]1C/C=C/C=C/C=C/C=C/[C@H](O[C@@H]2O[C@H](C)[C@@H](O)[C@H](N)[C@@H]2O)C[C@@H]2O[C@](O)(C[C@@H](O)C[C@H]3O[C@@H]3/C=C/C(=O)O1)C[C@H](O)[C@H]2C(=O)O [natamycin]
growth or no growth ([1]; 60°C, 5 ppm, day 1): − | growth or no growth ([1]; 60°C, 5 ppm, day 2): − | growth or no growth ([1]; 60°C, 5 ppm, day 3): − | growth or no growth ([1]; 60°C, 5 ppm, day 4): − | growth or no growth ([1]; 60°C, 5 ppm, day 5): − | growth or no growth ([1]; 60°C, 5 ppm, day 6): − | growth or no growth ([1]; 60°C, 5 ppm, day 7): + | growth or no growth ([1]; 60°C, 5 ppm, day 8): + | growth or no growth ([1]; 60°C, 5 ppm, day 9): + | growth or no growth ([1]; 60°C, 5 ppm, day 10): + | growth or no growth ([1]; 60°C, 5 ppm, day 11): + | growth or no growth ([1]; 60°C, 5 ppm, day 12): + | growth or no growth ([1]; 60°C, 5 ppm, day 13): + | growth or no growth ([1]; 60°C, 5 ppm, day 14): + | growth or no growth ([1]; 60°C, 5 ppm, day 15): + | growth or no growth ([1]; 60°C, 5 ppm, day 16): + | growth or no growth ([1]; 60°C, 5 ppm, day 17): + | growth or no growth ([1]; 60°C, 5 ppm, day 50): + | growth or no growth ([1]; 60°C, 10 ppm, day 1): − | growth or no growth ([1]; 60°C, 10 ppm, day 2): − | growth or no growth ([1]; 60°C, 10 ppm, day 3): − | growth or no growth ([1]; 60°C, 10 ppm, day 4): − | growth or no growth ([1]; 60°C, 10 ppm, day 5): − | growth or no growth ([1]; 60°C, 10 ppm, day 6): − | growth or no growth ([1]; 60°C, 10 ppm, day 7): − | growth or no growth ([1]; 60°C, 10 ppm, day 8): − | growth or no growth ([1]; 60°C, 10 ppm, day 9): − | growth or no growth ([1]; 60°C, 10 ppm, day 10): + | growth or no growth ([1]; 60°C, 10 ppm, day 11): + | growth or no growth ([1]; 60°C, 10 ppm, day 12): + | growth or no growth ([1]; 60°C, 10 ppm, day 13): + | growth or no growth ([1]; 60°C, 10 ppm, day 14): + | growth or no growth ([1]; 60°C, 10 ppm, day 15): + | growth or no growth ([1]; 60°C, 10 ppm, day 16): + | growth or no growth ([1]; 60°C, 10 ppm, day 17): + | growth or no growth ([1]; 60°C, 10 ppm, day 50): + | growth or no growth ([1]; 65°C, 5 ppm, day 1): − | growth or no growth ([1]; 65°C, 5 ppm, day 2): − | growth or no growth ([1]; 65°C, 5 ppm, day 3): − | growth or no growth ([1]; 65°C, 5 ppm, day 4): − | growth or no growth ([1]; 65°C, 5 ppm, day 5): − | growth or no growth ([1]; 65°C, 5 ppm, day 6): − | growth or no growth ([1]; 65°C, 5 ppm, day 7): − | growth or no growth ([1]; 65°C, 5 ppm, day 8): − | growth or no growth ([1]; 65°C, 5 ppm, day 9): − | growth or no growth ([1]; 65°C, 5 ppm, day 10): − | growth or no growth ([1]; 65°C, 5 ppm, day 11): − | growth or no growth ([1]; 65°C, 5 ppm, day 12): − | growth or no growth ([1]; 65°C, 5 ppm, day 13): − | growth or no growth ([1]; 65°C, 5 ppm, day 14): − | growth or no growth ([1]; 65°C, 5 ppm, day 15): − | growth or no growth ([1]; 65°C, 5 ppm, day 16): − | growth or no growth ([1]; 65°C, 5 ppm, day 17): − | growth or no growth ([1]; 65°C, 5 ppm, day 50): − | growth or no growth ([1]; 65°C, 10 ppm, day 1): − | growth or no growth ([1]; 65°C, 10 ppm, day 2): − | growth or no growth ([1]; 65°C, 10 ppm, day 3): − | growth or no growth ([1]; 65°C, 10 ppm, day 4): − | growth or no growth ([1]; 65°C, 10 ppm, day 5): − | growth or no growth ([1]; 65°C, 10 ppm, day 6): − | growth or no growth ([1]; 65°C, 10 ppm, day 7): − | growth or no growth ([1]; 65°C, 10 ppm, day 8): − | growth or no growth ([1]; 65°C, 10 ppm, day 9): − | growth or no growth ([1]; 65°C, 10 ppm, day 10): − | growth or no growth ([1]; 65°C, 10 ppm, day 11): − | growth or no growth ([1]; 65°C, 10 ppm, day 12): − | growth or no growth ([1]; 65°C, 10 ppm, day 13): − | growth or no growth ([1]; 65°C, 10 ppm, day 14): − | growth or no growth ([1]; 65°C, 10 ppm, day 15): − | growth or no growth ([1]; 65°C, 10 ppm, day 16): − | growth or no growth ([1]; 65°C, 10 ppm, day 17): − | growth or no growth ([1]; 65°C, 10 ppm, day 50): − | germination ([1]; 70° C., in the presence of natamycin): no germination occurred | growth or no growth ([1]; 70°C, 5 ppm, day 1): − | growth or no growth ([1]; 70°C, 5 ppm, day 2): − | growth or no growth ([1]; 70°C, 5 ppm, day 3): − | growth or no growth ([1]; 70°C, 5 ppm, day 4): − | growth or no growth ([1]; 70°C, 5 ppm, day 5): − | growth or no growth ([1]; 70°C, 5 ppm, day 6): − | growth or no growth ([1]; 70°C, 5 ppm, day 7): − | growth or no growth ([1]; 70°C, 5 ppm, day 8): − | growth or no growth ([1]; 70°C, 5 ppm, day 9): − | growth or no growth ([1]; 70°C, 5 ppm, day 10): − | growth or no growth ([1]; 70°C, 5 ppm, day 11): − | growth or no growth ([1]; 70°C, 5 ppm, day 12): − | growth or no growth ([1]; 70°C, 5 ppm, day 13): − | growth or no growth ([1]; 70°C, 5 ppm, day 14): − | growth or no growth ([1]; 70°C, 5 ppm, day 15): − | growth or no growth ([1]; 70°C, 5 ppm, day 16): − | growth or no growth ([1]; 70°C, 5 ppm, day 17): − | growth or no growth ([1]; 70°C, 5 ppm, day 50): − | growth or no growth ([1]; 70°C, 10 ppm, day 9): − | growth or no growth ([1]; 70°C, 10 ppm, day 10): − | growth or no growth ([1]; 70°C, 10 ppm, day 11): − | growth or no growth ([1]; 70°C, 10 ppm, day 12): − | growth or no growth ([1]; 70°C, 10 ppm, day 13): − | growth or no growth ([1]; 70°C, 10 ppm, day 14): − | growth or no growth ([1]; 70°C, 10 ppm, day 15): − | growth or no growth ([1]; 70°C, 10 ppm, day 16): − | growth or no growth ([1]; 70°C, 10 ppm, day 17): − | growth or no growth ([1]; 70°C, 10 ppm, day 50): − | germination ([1]; RT and 60° C., 5 ppm natamycin): delayed germination | germination ([1]; RT and 60° C., 10 ppm natamycin): longer delay | natamycin found in sample ([2]; Example 1 ice tea sample (pH 3.15)): < 0.04 mg/L | natamycin found in sample ([2]; Example 2 ice tea sample): < 0.04 mg/L | natamycin found in sample ([2]; Example 3 ice tea sample): < 0.04 mg/L
